# Patent US12396961B2, “Compounds and compositions for intracellular delivery of agents” (ModernaTX, Inc., priority 2015, dated 2025)
# Assays:
# [1] = test system: hEPO mRNA expression; assay: Expression of hEPO in mice (CD-1); format: in vivo, CD-1 mice; settings: Table 7e; hEPO expression, CD-1 mice, 0.5 mpk
# From the text: FIG. 12 is a set of graphs illustrating hEPO expression levels in CD-1 mice dosed with compounds of the disclosure, compared to MC3. PBS is used as control. […] In graphs A-C numbers 1-14 refer to compositions containing the following: 1: Compound 73, 2: Compound 80, 3: Compound 70; 4: Compound 81; 5: Compound 69; 6: Compound 82; 7: Compound 83; 8: Compound 62; 9: Compound 84; 10: Compound 85; 11: Compound 86; 12: Compound 87; 13: MC3; 14: PBS.
# FIG. 13 is a graph showing hEPO levels (pg/mL) in CD-1 mice up to −25 h after administration of a nanoparticle composition containing compounds of the disclosure, compared to a composition containing MC3. Numbers 1-13 refer to compositions containing the following: 1: Compound 73, 2: Compound 80, 3: Compound 70; 4: Compound 81; 5: Compound 69; 6: Compound 82; 7: Compound 83; 8: Compound 62; 9: Compound 84; 10: Compound 85; 11: Compound 86; 12: Compound 87; 13: MC3. […]
# [2] = test system: luciferase (Luc) mRNA expression; assay: Luc expression (AUC) in CD-1 mice relative to MC3; format: in vivo; settings: Luc expression relative to MC3, CD-1 mice
# Protocol: FIG. 15 is a graph summarizing luciferase expression levels at 6 h after administration of nanoparticle compositions containing compounds of the disclosure to CD-1 mice at a dose of 0.5 mpk. Total light flux values were acquired via body luminescent imaging (BLI) 6 h after administration. In this Figure, the numbers 1-7 and 10 refer to the compositions containing Compounds 4-10 and MC3 respectively.
# In contrast, hEPO expression in rats induced by administration of nanoparticle composition including compound according to one of formulae (I), (Ia1)-(Ia6), (Ib), (II), (IIa), (III), and (IIIa) was substantially lower than that measured for MC3. […] Table 7c and 7d show additional protein expressions and clearance data from compositions with various compounds disclosed herein as compared to with MC3.
# [3] = Particle size and polydispersity index (Zetasizer Nano ZS); format: physicochemical; settings: Table 1; DOPE 40:20:38.5:1.5, Luc mRNA
# From the text: Nanoparticle compositions may be characterized by a variety of methods. For example, microscopy (e.g., transmission electron microscopy or scanning electron microscopy) may be used to examine the morphology and size distribution of a nanoparticle composition. Dynamic light scattering or potentiometry (e.g., potentiometric titrations) may be used to measure zeta potentials. Dynamic light scattering may also be utilized to determine particle sizes. Instruments such as the Zetasizer Nano ZS (Malvern Instruments Ltd, Malvern, Worcestershire, UK) may also be used to measure multiple characteristics of a nanoparticle composition, such as particle size, polydispersity index, and zeta potential.
# A Zetasizer Nano ZS (Malvern Instruments Ltd, Malvern, Worcestershire, UK) can be used to determine the particle size, the polydispersity index (PDI) and the zeta potential of the nanoparticle compositions in 1×PBS in determining particle size and 15 mM PBS in determining zeta potential.
PDI [3],Structure (SMILES),Lipid/MC3 AUC [1],Lipid/MC3 Luc CD-1 (mice) [2]
,"CCCCCCCCCN(CCCCCCCCC)CCN(CCCCCCCCC)CC(=O)N1CCC(CN(CCCCCCCCC)CCCCCCCCC)C1 (stereo not drawn) [Compound 70, 2-((2-(Dinonylamino)ethyl)(nonyl)amino)-1-(3-((dinonylamino)methyl)pyrrolidin-1-yl)ethan-1-one]",1.77,
,"CCCCCCCCCN(CCCCCCCCC)CCCC1CCN(C(=O)CCN(CCCCCCCCC)CCN(CCCCCCCCC)CCCCCCCCC)CC1 [Compound 85, 3-((2-(Dinonylamino)ethyl)(nonyl)amino)-1-(4-(3-(dinonylamino)propyl)piperidin-1-yl)propan-1-one]",3.54,
,"CCCCCCCCCN(CCCC(=O)OCCCCC)CCC1CCCN(C(=O)CN(CCCCCCCCC)CCN(CCCCCCCCC)CCCCCCCCC)C1 (stereo not drawn) [Compound 80, Pentyl 4-((2-(1-(N-(2-(dinonylamino)ethyl)-N-nonylglycyl)piperidin-3-yl)ethyl)(nonyl)amino)butanoate]",1.74,
,"CCCCCCCCCN(CCCCCCCCC)CCC1CCCN(C(=O)CN(CCCCCCCCC)CCN(CCCCCCCCC)CCCCCCCCC)C1 (stereo not drawn) [Compound 73, 2-((2-(Dinonylamino)ethyl)(nonyl)amino)-1-(3-(2-(dinonylamino)ethyl)piperidin-1-yl)ethan-1-one]",3.93,
,"CCCCCCCCCN(CCCCCCCCC)CCN(CCCCCCCCC)CC(=O)N1CCC(CN(CCCCCCCCC)CCCC(=O)OCCCCC)C1 (stereo not drawn) [Compound 82, Pentyl 4-(((1-(N-(2-(dinonylamino)ethyl)-N-nonylglycyl)pyrrolidin-3-yl)methyl)(nonyl)amino)butanoate]",3.62,
,"CCCCCCCCCN(CCCCCCCCC)CCC1CCN(C(=O)CN(CCCCCCCCC)CCN(CCCCCCCCC)CCCCCCCCC)C1 (stereo not drawn) [Compound 69, 2-((2-(Dinonylamino)ethyl)(nonyl)amino)-1-(3-(2-(dinonylamino)ethyl)pyrrolidin-1-yl)ethan-1-one]",6.52,
,"CCCCCCCCCN(CCCC(=O)OCCCCC)CCC1CCN(C(=O)CN(CCCCCCCCC)CCN(CCCCCCCCC)CCCCCCCCC)CC1 [Compound 83, Pentyl 4-((2-(1-(N-(2-(dinonylamino)ethyl)-N-nonylglycyl)piperidin-4-yl)ethyl)(nonyl)amino)butanoate]",1.46,
0.190,"CCCCCCCCCN(CCCCCCCCC)CCN(CCCCCCCCC)CC(=O)N1CC2CC1CN2C(=O)CN(CCCCCCCCC)CCCCCCCCC (stereo not drawn) [Compound 42, 2-(Dinonylamino)-1-(5-(N-(2-(dinonylamino)ethyl)-N-nonylglycyl)-2,5-diazabicyclo[2.2.1]heptan-2-yl)ethan-1-one]",,3.99
,"CCCCCCCCCN(CCCOC(=O)CCCCC)CCC(=O)N1CCN(C(=O)CCN(CCCCCCCCC)CCN(CCCCCCCCC)CCCCCCCCC)CC1 [Compound 86, 3-((3-(4-(3-((2-(Dinonylamino)ethyl)(nonyl)amino)propanoyl)piperazin-1-yl)-3-oxopropyl)(nonyl)amino)propyl Hexanoate]",0.49,
0.190,"CCCCCCCCCCCCCCN(CCCCCCCCCCCCCC)CC(=O)N1CCN(C(=O)CN(CCCCCCCCC)CCN(CCCCCCCCC)CCCCCCCCC)CC1 [Compound 51, 2-((2-(Dinonylamino)ethyl)(nonyl)amino)-1-(4-(ditetradecylglycyl)piperazin-1-yl)ethan-1-one]",,5.22
,"CCCCCCCCCN(CCCC(=O)OCCCCC)CCCC1CCN(C(=O)CCN(CCCCCCCCC)CCN(CCCCCCCCC)CCCCCCCCC)CC1 [Compound 84, Pentyl 4-((3-(1-(3-((2-(dinonylamino)ethyl)(nonyl)amino)propanoyl)piperidin-4-yl)propyl)(nonyl)amino)butanoate]",1.43,
0.190,"CCCCCCCCCN(CCCCCCCCC)CCN(CCCCCCCCC)CC(=O)N1CCN(C(=O)CN(CCCCCCCCC)CCCCCCCC(=O)OC)CC1 [Compound 44, Methyl 8-((2-(4-(N-(2-(dinonylamino)ethyl)-N-nonylglycyl)piperazin-1-yl)-2-oxoethyl)(nonyl)amino)octanoate]",,0.82
